{"source": "patent US12325726B2", "about": "“Organic compounds” (priority 2018, dated 2025)", "key": {"[1]": {"molecular_target": "GABAA receptor", "assay": "[35S]-TBPS binding inhibition (in vitro potency)", "settings": "inhibition of specific binding of [35S]-TBPS", "procedure": "(§1) In vitro potency [ability to inhibit the binding of [^35S]-tert-butylbicyclophosphorothionate (TBPS)], rotorod TD50's (dose at which half of animals tested fail to stay on a rotating rod for 1 minute) and the length of time before animals tested are able to pass rotorod test (duration of action) of 3α-Hydroxy-21-(1′-imidazolyl)-3β-methoxymethyl-5α-pregnan-20-one is determined. These methods for measuring in vitro and in vivo activity of compounds of the invention are fully described in U.S. Pat. No. 5,232,917, incorporated herein by reference in its entirety. The TBPS assay gives the in vitro potency of compounds whereas the rotorod assay estimates the sedative/hypnotic activity of compounds. Since the duration of action of a compound is dependent on the dose and will be prolonged at higher doses, the duration of action is measured at the lowest dose at which all of the animals failed the rotorod test. IC50 is the dose of steroid inhibiting 50% of specific binding of [^35S]-tert-butylbicyclophorothionate (TBPS). Rotorod TD50 is the does at which half of animals fail the rotorod test in rat. Duration of action, measured at the lowest dose where all animals failed the rotorod test, is the time required for all animals tested to once again pass the rotorod test."}, "[2]": {"test_system": "human hepatocyte", "assay": "In vitro human hepatocyte stability assay", "format": "in vitro ADME", "settings": "human hepatocytes", "procedure": "The compounds of Examples 1, 2, 5 and 6 are compared in a standard in vitro human hepatocyte stability assay run in duplicate. Compounds are provided as 1 M solutions in DMSO, and concentration of test compound is determined at 0.5, 1.0 and 4.0 hours after addition of the test compound. Results are shown below as a percentage of initial concentration."}, "[3]": {"settings": "cited from earlier work"}, "[4]": {"test_system": "rat", "assay": "Rotorod test (sedative/hypnotic activity, duration of action)", "format": "in vivo", "procedure": "as §1"}, "[5]": {"assay": "In vivo mouse pharmacokinetics, paired oral co-dosing, plasma and brain", "parameters": "species or system mice", "settings": "10 mg/kg po co-dosed; for AUC: 0.25-6 hr sampling", "procedure": "In a first study, the compounds of Examples 2 to 6 are compared to the Compound of Formula A (Example 1) using standard procedures in mice. In each test, two compounds are co-dosed in a single animal and the relative pharmacokinetics in plasma and brain is determined. Each test compound is dissolved in polyethylene glycol 400 vehicle, and administered orally at a dose of 10 mg/kg. After single dose oral administration of the test compounds together, plasma and brain levels are measured at 0.25, 0.5, 1, 2, 4, and 6 hours post-dosing. The mean values for maximum concentration, time to maximum concentration, and Area Under the Curve (AUC) for both compounds are determined. The results are summarized in the tables below for various paired co-dosing experiments: […]"}, "[6]": {"settings": "brain, read-out: Brain concentration"}, "[7]": {"settings": "plasma, read-out: Plasma concentration"}}, "note": "Where two headings read alike, the source gives them in different places."}
{"smiles": "COC[C@@]1(O)CC[C@@]2(C)[C@@H](CC[C@@H]3[C@@H]2CC[C@]2(C)[C@@H](C(=O)Cn4ccnc4)CC[C@@H]32)C1", "note": "[Example 1, 3α-Hydroxy-21-(1′-imidazolyl)-3β-methoxymethyl-5α-pregnan-20-one]", "values": [{"measurement": "IC50", "setting": "[1]", "value": 138, "unit": "nM"}, {"measurement": "percentage of initial concentration", "setting": "[2]; 0 hr", "value": 100, "unit": "%"}, {"measurement": "percentage of initial concentration", "setting": "[2]; 0.5 hr", "value": 94, "unit": "%"}, {"measurement": "percentage of initial concentration", "setting": "[2]; 1.0 hr", "value": 90, "unit": "%"}, {"measurement": "percentage of initial concentration", "setting": "[2]; 4.0 hr", "value": 78, "unit": "%"}, {"measurement": "AUC (0-24)", "setting": "[3]; human, oral 1 mg fasted, mean", "value": 16.9, "unit": "ng·h/mL"}, {"measurement": "AUC (0-last)", "setting": "[3]; human, oral 1 mg fasted, mean", "value": 22.4, "unit": "ng·h/mL"}, {"measurement": "Cmax", "setting": "[3]; human, oral 1 mg fasted, mean", "value": 1.3, "unit": "ng/mL"}, {"measurement": "T1/2", "setting": "[3]; human, oral 1 mg fasted, mean", "value": 13.8, "unit": "h"}, {"measurement": "Tmax", "setting": "[3]; human, oral 1 mg fasted, mean", "value": 3.1, "unit": "h"}, {"measurement": "AUC (0-24)", "setting": "[3]; human, oral 3 mg fasted, mean", "value": 54.6, "unit": "ng·h/mL"}, {"measurement": "AUC (0-last)", "setting": "[3]; human, oral 3 mg fasted, mean", "value": 65.6, "unit": "ng·h/mL"}, {"measurement": "Cmax", "setting": "[3]; human, oral 3 mg fasted, mean", "value": 5.7, "unit": "ng/mL"}, {"measurement": "T1/2", "setting": "[3]; human, oral 3 mg fasted, mean", "value": 8.8, "unit": "h"}, {"measurement": "Tmax", "setting": "[3]; human, oral 3 mg fasted, mean", "value": 2.8, "unit": "h"}, {"measurement": "AUC (0-24)", "setting": "[3]; human, oral 10 mg fasted, mean", "value": 213, "unit": "ng·h/mL"}, {"measurement": "AUC (0-last)", "setting": "[3]; human, oral 10 mg fasted, mean", "value": 254, "unit": "ng·h/mL"}, {"measurement": "Cmax", "setting": "[3]; human, oral 10 mg fasted, mean", "value": 26.5, "unit": "ng/mL"}, {"measurement": "T1/2", "setting": "[3]; human, oral 10 mg fasted, mean", "value": 13.1, "unit": "h"}, {"measurement": "Tmax", "setting": "[3]; human, oral 10 mg fasted, mean", "value": 1.7, "unit": "h"}, {"measurement": "AUC (0-24)", "setting": "[3]; human, oral 30 mg fasted, mean", "value": 952, "unit": "ng·h/mL"}, {"measurement": "AUC (0-last)", "setting": "[3]; human, oral 30 mg fasted, mean", "value": 1117, "unit": "ng·h/mL"}, {"measurement": "Cmax", "setting": "[3]; human, oral 30 mg fasted, mean", "value": 120, "unit": "ng/mL"}, {"measurement": "T1/2", "setting": "[3]; human, oral 30 mg fasted, mean", "value": 13.1, "unit": "h"}, {"measurement": "Tmax", "setting": "[3]; human, oral 30 mg fasted, mean", "value": 2.1, "unit": "h"}, {"measurement": "AUC (0-24)", "setting": "[3]; human, oral 60 mg fasted, mean", "value": 2330, "unit": "ng·h/mL"}, {"measurement": "AUC (0-last)", "setting": "[3]; human, oral 60 mg fasted, mean", "value": 2608, "unit": "ng·h/mL"}, {"measurement": "Cmax", "setting": "[3]; human, oral 60 mg fasted, mean", "value": 330, "unit": "ng/mL"}, {"measurement": "T1/2", "setting": "[3]; human, oral 60 mg fasted, mean", "value": 12.5, "unit": "h"}, {"measurement": "Tmax", "setting": "[3]; human, oral 60 mg fasted, mean", "value": 1.8, "unit": "h"}, {"measurement": "T1/2", "setting": "[3]; humans, oral dosing, average across five dosing groups", "value": "approximately 12 hours"}, {"measurement": "TD50", "setting": "[4]; Rattus norvegicus, po, read-out: rotorod TD50 (po)", "value": 28, "unit": "mg/kg"}, {"measurement": "duration of action", "setting": "[4]; at lowest dose where all animals failed the rotorod test, time until all pass again", "value": 140, "unit": "min"}, {"measurement": "Cmax", "setting": "[5]; brain", "value": 2880, "unit": "ng/g"}, {"measurement": "Tmax", "setting": "[5]; brain", "value": 1, "unit": "h"}, {"measurement": "AUC", "setting": "[5]; brain", "value": 14200, "unit": "ng·h/mL"}, {"measurement": "concentration at 0.25 hr", "setting": "[5]; [6]", "value": 2280, "unit": "ng/g"}, {"measurement": "concentration at 0.5 hr", "setting": "[5]; [6]", "value": 2230, "unit": "ng/g"}, {"measurement": "concentration at 1 hr", "setting": "[5]; [6]", "value": 2880, "unit": "ng/g"}, {"measurement": "concentration at 2 hr", "setting": "[5]; [6]", "value": 2520, "unit": "ng/g"}, {"measurement": "concentration at 4 hr", "setting": "[5]; [6]", "value": 2360, "unit": "ng/g"}, {"measurement": "concentration at 6 hr", "setting": "[5]; [6]", "value": 2090, "unit": "ng/g"}, {"measurement": "Kp", "setting": "[5]; brain/plasma, read-out: B/P AUC Ratio", "value": 1.2}, {"measurement": "Cmax", "setting": "[5]; plasma", "value": 2580, "unit": "ng/mL"}, {"measurement": "Tmax", "setting": "[5]; plasma", "value": 1, "unit": "h"}, {"measurement": "AUC", "setting": "[5]; plasma", "value": 11700, "unit": "ng·h/mL"}, {"measurement": "concentration at 0.25 hr", "setting": "[5]; [7]", "value": 2270, "unit": "ng/mL"}, {"measurement": "concentration at 0.5 hr", "setting": "[5]; [7]", "value": 1820, "unit": "ng/mL"}, {"measurement": "concentration at 1 hr", "setting": "[5]; [7]", "value": 2580, "unit": "ng/mL"}, {"measurement": "concentration at 2 hr", "setting": "[5]; [7]", "value": 2100, "unit": "ng/mL"}, {"measurement": "concentration at 4 hr", "setting": "[5]; [7]", "value": 1840, "unit": "ng/mL"}, {"measurement": "concentration at 6 hr", "setting": "[5]; [7]", "value": 1750, "unit": "ng/mL"}]}
